Results taken from publication PMC7313430, “Heme-Dependent ER Stress Apoptosis: A Mechanism for the Selective Toxicity of the Dihydroartemisinin, NSC735847, in Colorectal Cancer Cells” (Frontiers in Oncology, 2020).

Legend:
Type in all cases: cell-based, human
[1] = tested on: caspase 3/7 activity in HCT-116 cells; experiment: Caspase-Glo 3/7 activity assay in HCT116; conditions: 16 h, 1.25-10 μM
Experimental: (§1) The cells were plated in white-walled 96-well-plates and then they were cultured at 37°C for 48 h. Serum-free culture medium containing the appropriate concentration of different agents was added to the cells for the indicated period of time. Caspase-Glo 3/7 reagent (Promega, Madison, WI) was added to each well and luminescence was detected as directed by the manufacturer. The Caspase-Glo 3/7 kit measures the activity of the executioner caspases 3 and 7 using the luminogenic substrate (Z-DEVD-aminoluciferin) as substrate.

HT29 cells [2] = experiment: TUNEL assay in HT29; conditions: 5 or 10 μM, 16 h
Experimental: HT29, HCT116, and FHC cells were cultured in chamber slides and treated with 5 μM NSC735847, 10 μM NSC735847, or vehicle (0.1% DMSO). The cells were then washed with PBS and fixed in 4% paraformaldehyde before detection of double stranded DNA breaks that are characteristic of apoptosis. Terminal deoxynucleotidyl transferase dUTP nick end labeling (TUNEL) assays were performed as described by the manufacturer (in situ Cell Death Detection Kit; Roche; Indianapolis, IN). Briefly, fixed cells were incubated in permeabilization solution (0.1% Triton X-100 in 0.1% sodium citrate) for 2 min on ice. The slides were rinsed twice with PBS, 50 μL TUNEL reaction mixture was added, and then the samples were incubated for 1 h at 37°C in the dark. The slides were overlayed with antifade mounting medium containing DAPI and then visualized using a Zeiss LSM 700 confocal microscope system (Carl Zeiss Microscopy, LLC, White Plains, NY).

HT29 cells [3] = experiment: MTS cell viability assay, colon cancer cells HT29
Experimental: The human colon cancer cell lines HT29 and HCT116 were cultured in McCoy's 5A medium (Sigma Aldrich, St. Louis, MO) containing 10% heat-inactivated fetal bovine serum (FBS), penicillin (100 units/ml), and streptomycin (100 μg/ml). The non-tumorigenic colon cell line, FHC, was cultured in DMEM: F12 (1:1) medium supplemented with 10% heat inactivated FBS, 25 mM HEPES (Thermo Fisher Scientific Inc., IL), 10 ng/ml cholera toxin (Sigma Aldrich, St. Louis, MO), 0.005 mg/ml insulin (Thermo Fisher Scientific Inc., IL), 0.005 mg/ml, transferrin (Sigma Aldrich, St. Louis, MO), 100 ng/ml hydrocortisone (Sigma Aldrich, St. Louis, MO), 20 ng/mL human recombinant epidermal growth factor (Thermo Fisher Scientific Inc., IL), 100 units/ml penicillin, and 100 μg/ml streptomycin.
Cells were cultured in 96-well-plates for 48 h before treatment. Serum-free media containing different agents was added to the cells at the concentration and time period described in the figure legend. MTS reagent (Promega, Madison, WI) was then added to each well and the absorbance was measured at 495 nm as directed by the manufacturer. In the presence of MTS reagent, the absorbance reading is proportional to the number of viable cells. The half-maximal inhibitory concentration (IC50) of the tested compounds is the concentration that reduces the viability of cells by 50%. IC50 was calculated after 24 h of treatment ([30], [31]) as described previously ([32]–[34]) from dose-response curves (log drug concentration vs. percentage viability from untreated cells) generated by non-linear regression analysis with GraphPad Prism 5 software (GraphPad Software, San Diego, California).

[4] = tested on: reactive oxygen species in HT29 cells; experiment: Oxidative stress measurement with CM-H2DCFDA (DCF); conditions: HT29, 10 μM, 8 h
Experimental: Oxidative stress was measured in cultured cells by using the probe, chloromethyl-2′,7′ dichlorodihydrofluorescein diacetate (CM-H2DCFDA or DCF) purchased from Life Technologies (Grand Island, NY). […] The cells were loaded with 5 μM DCF in phenol red-free, serum-free medium for 30 min and then the cells were treated with the appropriate drug for the indicated period of time. The cells were then trypsinized and resuspended in serum-containing, phenol red-free medium. The fluorescence of DCF was measured using an Accuri C6 flow cytometer (BD Accuri Cytometers, Ann Arbor, MI) at an excitation wavelength of 488 and emission of 533 ± 30 nm.

[5] = tested on: caspase 3/7 activity in HT29 cells; experiment: Caspase-Glo 3/7 activity assay in HT29; conditions: 16 h, 1.25-10 μM
Experimental: as §1

[6] = tested on: ferritin H mRNA in HT29 cells; experiment: Ferritin mRNA qRT-PCR; conditions: HT29, 10 μM, 4, 8 and 16 h
Experimental: Total RNA was extracted from HT29 cells by utilizing TRI reagent (Sigma Aldrich, St. Louis, MO, USA) and then it was purified with the Direct-zol RNA MiniPrep Kit (Zymo Research, Irvine, CA, USA). cDNA was synthesized from purified RNA by using the iScript cDNA Synthesis Kit (Bio-Rad laboratories, Hercules, CA, USA). qRT-PCR was performed by using the iTaq Universal SYBR Green Supermix (Bio-Rad laboratories, Hercules, CA, USA) with the BioRad CFX96 thermocycler (Bio-Rad laboratories, Hercules, CA, USA). The specific primer pair sequences were 5′-[…]-3′ and 5′-[…]-3′ for β-actin; and 5′-[…]-3′ and 5′-[…]-3′ for ferritin H (heavy-chain). Cycle threshold values were normalized to the internal beta-actin control. The ratio of fold change was calculated using the Pfaffl method ([37]).

Structure (SMILES): CC1CCC2C(C)C(OCC(COC3OC4OC5(C)CCC6C(C)CCC(C3C)C46OO5)=NO)OC3OC4(C)CCC1C32OO4 (stereo not shown) [compound (3)]
- caspase 3/7 activity in HCT-116 [1]: significantly increased
- TUNEL positive cells in HT29 (HT29 cells [2]): increased the quantity of TUNEL positive cells
- IC50 (HT29 cells [3]; Homo sapiens, HT-29, MTS viability, 24 h treatment): 11 µM
- cell death / survival of HT29 cells (HT29 cells [3]; MTS, 24 h, single agents or combinations): induced death in a concentration-dependent manner
- intracellular oxidative stress (DCF fluorescence) [4]: increased the intracellular oxidative stress levels
- caspase 3/7 activity in HT-29 [5]: significantly increased
- ferritin mRNA expression [6]: upregulated the expression of ferritin mRNA
